This note sets out measurements from ChEMBL document CHEMBL1201862, “PubChem BioAssay data set” (2004).

Molecules are shown by their SMILES.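 Interpolation was linear, between the two tested concentrations surrounding the appropriate level; five concentrations were tested over 48 hours in 96-well plates. The concentration for 50% growth inhibition is given as GI50.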 Calls of active or inactive are those of the source. Cut-off read from the data, not from the text of the source: active = GI50 up to about 1.1 µM and inactive = higher.

Holding throughout (assay): NCI anticancer screen, dose series, 48 h
For experiment [1], the system named is LXFL 529.
The subject of experiment [2] is M19-MEL.
For experiment [3], the system named is SNB-78.
The test system of experiment [4] is DMS-114.
Experiment [5] deals with XF498.
In experiment [6] the test system is DMS-273.
For experiment [7], the system named is RXF 631.
The test system of experiment [8] is DLD-1.
Experiment [9] deals with HOP-18.

For the compound `O=C1NC2(C=Cc3c(ccc4ccccc34)O2)Oc2ccccc21` (configuration not stated), the GI50 in experiment [1] was 18.3 µM (inactive); in experiment [2], 25.1 µM (inactive); in [3], 20.7 µM (inactive); in experiment [4], 13.2 µM (inactive); in experiment [5], 19.1 µM (inactive); in experiment [6] it was 9.51 µM (inactive).
Regarding `CC1CC2C(=O)N(c3ccccc3)C(=O)C2c2[nH]c3ccccc3c21` (configuration not stated), the GI50 in experiment [1] was 42.5 µM (inactive); in [2] it was 41.5 µM (inactive); in experiment [7] it was 34.3 µM (inactive); in experiment [8], 89.3 µM (inactive); in experiment [3], > 100 µM (inactive); in experiment [4] it was 30.7 µM (inactive). In addition, the GI50 in experiment [6] is 79.4 µM (inactive).
Turning to `O=C1CCC(=O)c2ccccc2N1`, the GI50 in [1], in experiment [2], in experiment [8], in [4], in experiment [5] and in [9] was > 100 µM (inactive) in each case. The GI50 in [6] was > 100 µM (inactive).
As to `CCOC(=O)N1CCc2cc(OC)c(OC)c3c2C1CC3=O` (configuration not stated), the GI50 in [1], in experiment [2], in [8], in experiment [3], in experiment [4] and in experiment [9] was > 100 µM (inactive) throughout. For the same compound, the GI50 in experiment [6] was > 100 µM (inactive).
For the compound `O=C(NCCCCCCCCNC(=O)c1cnc2ccccc2n1)c1cnc2ccccc2n1`, the GI50 in [1], in [2], in experiment [8], in experiment [3], in experiment [4] and in experiment [5] was > 100 µM (inactive) each time. For the same compound, the GI50 in [9] and in experiment [6] was > 100 µM (inactive) in each case.
Take `CN(OC(=O)CC(=O)c1ccccc1)C(=O)Cc1ccccc1`: the GI50 in [1], in experiment [2], in [7], in experiment [8], in [3] and in [4] was > 100 µM (inactive) each time.
`C=C(CO)CC(O)c1cc(OC)ccc1OC` (configuration not stated): the GI50 in experiment [1], in experiment [2], in [5] and in experiment [6] was > 100 µM (inactive) throughout.
For `O=C1c2ccccc2C(=O)N1C/C=N/NS(=O)(=O)c1ccc(F)cc1`, the GI50 in [1], in [2], in experiment [7], in experiment [8], in experiment [4] and in experiment [5] was > 100 µM (inactive) each time. The GI50 in [6] is > 100 µM (inactive).
Take `OCCN1CCN2C=C(C3CCCC4N(CCO)CCN34)CCC21` (configuration not stated): the GI50 in [1] is 43.8 µM (inactive); in experiment [2], 34.7 µM (inactive); in experiment [8], 22.7 µM (inactive); in [3] it was 37.9 µM (inactive); in [4], 25.4 µM (inactive); in [5] it was 48.1 µM (inactive). The figures for the GI50 in experiment [9] and in [6] were > 100 µM (inactive) and 49.2 µM (inactive), respectively.
`O=C1CCC(=O)N1CNc1cccc(NCN2C(=O)CCC2=O)c1`: the GI50 in [1] is 56.8 µM (inactive); in experiment [2], > 100 µM (inactive); in [7] it was > 100 µM (inactive); in experiment [8], > 100 µM (inactive); in experiment [3], > 100 µM (inactive); in experiment [5], > 100 µM (inactive). The GI50 in experiment [6] is 61.1 µM (inactive).
As to `C=C(C)CCOC(c1ccccc1)(c1ccccc1)c1ccccc1`, the GI50 in [1] was 45.8 µM (inactive); in [2] it was 27.9 µM (inactive); in experiment [7] it was 55.5 µM (inactive); in experiment [8], 60.4 µM (inactive); in experiment [3], 70.1 µM (inactive); in [5] it was 26.1 µM (inactive).
Regarding `Cn1nc(-c2ccccc2)c(N=[N+]=[N-])cc1=O`, the GI50 in experiment [1], in experiment [2], in experiment [4], in [5] and in experiment [6] was > 100 µM (inactive) each time.
For the compound `Cc1ccc(S(=O)(=O)N2CCC3(C(/C=C/c4ccccc4)=Nc4ccccc43)C2c2ccccc2)cc1` (configuration not stated), the GI50 is > 100 µM (inactive) in experiment [1]; > 100 µM (inactive) in experiment [2]; > 100 µM (inactive) in [8]; > 100 µM (inactive) in [3]; > 100 µM (inactive) in experiment [4]; 63.1 µM (inactive) in experiment [5]. For the same compound, the GI50 in experiment [6] was > 100 µM (inactive).
For the compound `CN(C)c1ccc(/C=C2\Cc3ccccc3C2=O)cc1Br`, the GI50 is 33.8 µM (inactive) in experiment [1]; 51.1 µM (inactive) in experiment [2]; 47.5 µM (inactive) in [8]; 59.8 µM (inactive) in experiment [3]; 29.6 µM (inactive) in experiment [4]; 26.1 µM (inactive) in [5].
Regarding `N#C/C(=C1\OC(=N)C(c2ccc(Cl)cc2)=C1O)c1ccc(Cl)cc1`, the GI50 in experiment [1] is 11.7 µM (inactive); in experiment [2], 15.1 µM (inactive); in experiment [8], 15.3 µM (inactive); in [3], 12.8 µM (inactive); in experiment [4] it was 14.8 µM (inactive); in experiment [9], 16.9 µM (inactive). For the same compound, the GI50 in [6] was 13.5 µM (inactive).
For the compound `C=CC[C@H]1C[C@@]2(C)OC[C@H](C(C)C)N2C1=O`, the GI50 in experiment [2], in [3], in experiment [5], in experiment [9] and in experiment [6] was > 100 µM (inactive) each time.
Consider `Cn1c(=O)c2c(ncn2CCCCn2ccnc2[N+](=O)[O-])n(C)c1=O`, for which the GI50 in [1], in [2], in experiment [3], in experiment [4], in experiment [5] and in experiment [6] was > 100 µM (inactive) in each case.
On to `C=CC(=O)NCCSCCCOC1(C(=O)O)CC(O)C(NC(C)=O)C(C(O)C(O)CO)O1` (configuration not stated), for which the GI50 in experiment [1], in experiment [8], in experiment [3], in experiment [4], in experiment [5] and in [6] was > 100 µM (inactive) throughout.
`CC(=O)NC1C(OCc2ccccc2)OC(CO)C(O)C1OC(C)C(=O)NC(C)C(=O)N[C@@H](CCC(=O)OCCCNC1c2ccccc2Nc2cccc([N+](=O)[O-])c21)C(N)=O` (some centres not stated): the GI50 in experiment [1] was < 0.01 µM (active); in experiment [8], < 0.01 µM (active); in experiment [3] it was 0.0121 µM (active); in [9], < 0.01 µM (active); in experiment [6] it was < 0.01 µM (active).
On to `COC(=O)C1[C@@H](C(=O)OC)C(=O)O[C@H]1c1cc(OC)c(OC)c(OC)c1` (some centres not stated), for which the GI50 in experiment [1], in experiment [2], in [8], in experiment [3], in experiment [4] and in [9] was > 100 µM (inactive) each time. Moreover, the GI50 in experiment [6] is > 100 µM (inactive).
